The values below come from the supplement of paper PMC10307832.

What all share (assay): relative viability (nuclei count vs DMSO), 5 days (fraction); higher = more cells survive
Compound in assay [1]: C1=CC2=C(C=CC(=C2)C=C3C(=O)NC(=NCC4=CC=CS4)S3)N=C1 [RO-3306] + COc1cccc2cc(-c3nc([C@H]4CC[C@H](C(=O)O)CC4)n4ncnc(N)c34)[nH]c12 [OSI-027] (partner 0.5 µM)
The procedure, abridged: (§1)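 Lung cancer cell lines were pin-tool dosed in 1536-well plates on the day after seeding, with either a lone drug or a fixed anchor-drug dose plus five library-drug doses (not always all listed) in √10 steps. Nuclei were counted on 4× images after 5 days. Relative viability is the ratio of treated-well to vehicle-well nuclei counts, with each value a median of duplicate plates.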

Compound in assay [2]: C1=CC2=C(C=CC(=C2)C=C3C(=O)NC(=NCC4=CC=CS4)S3)N=C1 [RO-3306] + C[C@@H](Oc1cc(-c2cnn(C3CCNCC3)c2)cnc1N)c1c(Cl)ccc(F)c1Cl [Crizotinib] (partner 1 µM)
The procedure, abridged:
as §1

Compound in assay [3]: C1=CC2=C(C=CC(=C2)C=C3C(=O)NC(=NCC4=CC=CS4)S3)N=C1 [RO-3306] + C[C@]1(O)C[C@@H](c2nc(-c3ccc4ccc(-c5ccccc5)nc4c3)c3c(N)nccn32)C1 [Linsitinib] (partner 1 µM)
The essentials: as §1

Compound in assay [4]: C1=CC2=C(C=CC(=C2)C=C3C(=O)NC(=NCC4=CC=CS4)S3)N=C1 [RO-3306] + Cc1cc(Nc2cc(N3CCN(C)CC3)nc(Sc3ccc(NC(=O)C4CC4)cc3)n2)n[nH]1 [Tozasertib] (partner 0.1 µM)
The essentials: as §1

Take UMC-11: the relative viability turned out to be 0.496 in assay [1] (first compound 0.01 µM); 0.384 in assay [1] (first compound 0.03162 µM); 0.456 in assay [1] (first compound 0.1 µM); 0.552 in assay [1] (first compound 0.3162 µM); 0.453 in assay [1] (first compound 1 µM); 0.49 in assay [2] (first compound 0.01 µM). The relative viability in assay [2] (first compound 0.03162 µM) was 0.555; in assay [2] (first compound 0.1 µM), 0.62; in assay [2] (first compound 0.3162 µM), 0.906; in assay [2] (first compound 1 µM) it was 0.48; in assay [3] (first compound 0.01 µM), 0.998; in assay [3] (first compound 0.03162 µM), 0.783. In addition, the relative viability was found to be 1.08 in assay [3] (first compound 0.1 µM); 1.08 in assay [3] (first compound 0.3162 µM); 1.03 in assay [3] (first compound 1 µM); 0.174 in assay [4] (first compound 0.01 µM); 0.225 in assay [4] (first compound 0.03162 µM); 0.199 in assay [4] (first compound 0.1 µM). In addition, the relative viability was 0.213 in assay [4] (first compound 0.3162 µM) and 0.194 in assay [4] (first compound 1 µM).
